3 compounds from patent US6376497B1, “Antifungal azole derivatives having a fluorinated vinyl group and process for preparing same” (Korea Research Institute of Chemical Technology, priority 1999, dated 2002) can be followed below.

Common to all, as to assay: In vitro antifungal activity, microbroth dilution MIC
Holding throughout (format): cell-based
Common to all, as to conditions: RPMI-1640, 35° C., 4 to 48 hours, no growth observed
Background: In broth dilution the organism is exposed to a series of concentrations in liquid medium.

Experiment [1] concerns Trichophyton mentagrophytes A. 9129. The method, boiled down: (§1)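 Broth microdilution adapted from NCCLS M27, in RPMI-1640 with 0.165 M MOPS, pH 7.0. Yeast or mould inoculum at 2×10^3 CFU/ml was mixed 1:1 with DMSO-derived compound solutions (200 to 0.10 μg/ml before mixing) and incubated at 35 °C for 4 to 48 h. MIC was the concentration showing no growth.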
Experiment [2] deals with Candida tropicalis A. 13803. Summed up: as §1
Experiment [3] has as its system Cryptococcus neoformans A. 34144. Summed up:
as §1

Experiment [4] has as its system Candida albicans IFO. 1385. Summed up: as §1
Another experiment relates to Candida albicans C1-2. Summed up: as §1
The test system of experiment [5] is Candida albicans A. 10231. The method, boiled down:
as §1

The next experiment concerns Candida krusei K. 11655. Summed up:
as §1

Experiment [6] concerns Trichophyton mentagrophytes B. 32663. Summed up:
as §1

For experiment [7], the system named is Aspergillus furnigatus B. 19119. Summed up: as §1
The subject of experiment [8] is Candida pseudotropicalis K. 11658. The method, boiled down:
as §1

Experiment [9] deals with Candida parapsitosis A. 7330. Summed up: as §1
Experiment [10] deals with Cryptococcus neoformans IFM. 40092. Summed up: as §1
Experiment [11] relates to Cryptococcus neoformans B. 42419. The method, boiled down: as §1
Experiment [12] concerns Torulopsis glabrata B. 16205. Summed up: as §1
In experiment [13] the test system is Aspergillus niger A. 16404. Summed up: as §1

Molecules are shown by their SMILES.

On to `FC(Oc1ccc(OCC2COC(Cn3cncn3)(c3ccc(Cl)cc3Cl)O2)cc1)=C(c1ccccc1)C(F)(F)F` (mixture of isomers) [Ex. 119], for which the “Minimal inhibitory concentration(MIC), T. mentagrophytes A. 9129” value in [1] was determined as 6.25 µg/mL. In addition, the “Minimal inhibitory concentration(MIC), C. tropicalis A. 13803” value in [2] is more than 100 µg/mL. Also, in experiment [3], the “Minimal inhibitory concentration(MIC), Cry. neoformans A. 34144” value worked out at 1.56 µg/mL. Moreover, in experiment [4], the “Minimal inhibitory concentration(MIC), C. albicans IFO. 1385” value was found to be 1.56 µg/mL. In the experiment on Candida albicans C1-2, the “Minimal inhibitory concentration(MIC), C. albicans C1-2” value came to 25.0 µg/mL. Moreover, the “Minimal inhibitory concentration(MIC), C. albicans A. 10231” value in experiment [5] came out at 50.0 µg/mL. Moreover, in the experiment with Candida krusei K. 11655, the “Minimal inhibitory concentration(MIC), C. krusei K. 11655” value was more than 100 µg/mL. The “Minimal inhibitory concentration(MIC), T. mentagrophytes B. 32663” value in experiment [6] came to 3.13 µg/mL. In experiment [7], the “Minimal inhibitory concentration(MIC), A furnigatus B. 19119” value is more than 100 µg/mL. For the same compound, in experiment [8], the “Minimal inhibitory concentration(MIC), C. pseudotropicalis K. 11658” value is more than 100 µg/mL. Further, the “Minimal inhibitory concentration(MIC), C. parapsitosis A. 7330” value in experiment [9] is more than 100 µg/mL. For the same compound, in experiment [10], the “Minimal inhibitory concentration(MIC), Cry. neoformans IFM. 40092” value came out at 0.39 µg/mL. For the same compound, in experiment [11], the “Minimal inhibitory concentration(MIC), Cry. neoformans B. 42419” value was determined as 1.56 µg/mL. In [12], the “Minimal inhibitory concentration(MIC), T. glabrata B. 16205” value is 50.0 µg/mL. For the same compound, the “Minimal inhibitory concentration(MIC), A. niger A. 16404” value in [13] is more than 100 µg/mL.

As to `Cc1ccc(C(=C(F)Oc2ccc(OCC3COC(Cn4cncn4)(c4ccc(Cl)cc4Cl)O3)cc2)C(F)(F)F)cc1` (mixture of isomers) [Ex. 120], the “Minimal inhibitory concentration(MIC), T. mentagrophytes A. 9129” value in experiment [1] is 6.25 µg/mL. Besides, in experiment [2], the “Minimal inhibitory concentration(MIC), C. tropicalis A. 13803” value came out at 100 µg/mL. Moreover, in experiment [3], the “Minimal inhibitory concentration(MIC), Cry. neoformans A. 34144” value was determined as 1.56 µg/mL. Also, in [4], the “Minimal inhibitory concentration(MIC), C. albicans IFO. 1385” value is 1.56 µg/mL. Further, the “Minimal inhibitory concentration(MIC), C. albicans C1-2” value in the experiment on Candida albicans C1-2 was 25.0 µg/mL. Also, in experiment [5], the “Minimal inhibitory concentration(MIC), C. albicans A. 10231” value was 25.0 µg/mL. Further, in the experiment with Candida krusei K. 11655, the “Minimal inhibitory concentration(MIC), C. krusei K. 11655” value was more than 100 µg/mL. Moreover, the “Minimal inhibitory concentration(MIC), T. mentagrophytes B. 32663” value in experiment [6] is 3.13 µg/mL. In [7], the “Minimal inhibitory concentration(MIC), A furnigatus B. 19119” value was more than 100 µg/mL. Besides, in [8], the “Minimal inhibitory concentration(MIC), C. pseudotropicalis K. 11658” value is more than 100 µg/mL. For the same compound, the “Minimal inhibitory concentration(MIC), C. parapsitosis A. 7330” value in experiment [9] was more than 100 µg/mL. The “Minimal inhibitory concentration(MIC), Cry. neoformans IFM. 40092” value in [10] was determined as 0.39 µg/mL. In addition, in experiment [11], the “Minimal inhibitory concentration(MIC), Cry. neoformans B. 42419” value came out at 3.13 µg/mL. Further, in experiment [12], the “Minimal inhibitory concentration(MIC), T. glabrata B. 16205” value was 50.0 µg/mL. In [13], the “Minimal inhibitory concentration(MIC), A. niger A. 16404” value was more than 100 µg/mL.

Turning to `COc1ccc(C(=C(F)Oc2ccc(OCC3COC(Cn4cncn4)(c4ccc(Cl)cc4Cl)O3)cc2)C(F)(F)F)cc1` (mixture of isomers) [Ex. 121], the “Minimal inhibitory concentration(MIC), T. mentagrophytes A. 9129” value in experiment [1] was found to be 6.25 µg/mL. Moreover, the “Minimal inhibitory concentration(MIC), C. tropicalis A. 13803” value in [2] was more than 100 µg/mL. For the same compound, in experiment [3], the “Minimal inhibitory concentration(MIC), Cry. neoformans A. 34144” value came to 1.56 µg/mL. Further, in experiment [4], the “Minimal inhibitory concentration(MIC), C. albicans IFO. 1385” value was 3.13 µg/mL. Also, the “Minimal inhibitory concentration(MIC), C. albicans C1-2” value in the experiment with Candida albicans C1-2 came to 100 µg/mL. The “Minimal inhibitory concentration(MIC), C. albicans A. 10231” value in experiment [5] amounted to 100 µg/mL. The “Minimal inhibitory concentration(MIC), C. krusei K. 11655” value in the experiment with Candida krusei K. 11655 came to 100 µg/mL. Further, in experiment [6], the “Minimal inhibitory concentration(MIC), T. mentagrophytes B. 32663” value is 3.13 µg/mL. In addition, in [7], the “Minimal inhibitory concentration(MIC), A furnigatus B. 19119” value was more than 100 µg/mL. The “Minimal inhibitory concentration(MIC), C. pseudotropicalis K. 11658” value in experiment [8] is 25.0 µg/mL. Also, the “Minimal inhibitory concentration(MIC), C. parapsitosis A. 7330” value in [9] was 100 µg/mL. For the same compound, the “Minimal inhibitory concentration(MIC), Cry. neoformans IFM. 40092” value in experiment [10] was 0.20 µg/mL. In [11], the “Minimal inhibitory concentration(MIC), Cry. neoformans B. 42419” value was 1.56 µg/mL. Further, in [12], the “Minimal inhibitory concentration(MIC), T. glabrata B. 16205” value is 50.0 µg/mL. Moreover, the “Minimal inhibitory concentration(MIC), A. niger A. 16404” value in experiment [13] is more than 100 µg/mL.
